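Values below derive from 48-hour exposures of cells grown in 96-well plates, with endpoints linearly interpolated between the two concentrations bracketing the appropriate inhibition level. TGI marks complete inhibition of growth.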
Columns and labels:
Assay in all cases: growth of human tumour cells (NCI), 48 h
BT-549 breast = tested on: BT-549 breast
NCI/ADR-RES ovarian = tested on: NCI/ADR-RES ovarian
A549 NSCLC = tested on: A549 NSCLC
IGROV1 ovarian = tested on: IGROV1 ovarian
HL-60(TB) leukemia = tested on: HL-60(TB) leukemia
M14 melanoma = tested on: M14 melanoma
OVCAR-8 ovarian = tested on: OVCAR-8 ovarian
SK-MEL-2 melanoma = tested on: SK-MEL-2 melanoma
KM12 colon = tested on: KM12 colon
OVCAR-5 ovarian = tested on: OVCAR-5 ovarian
SNB-75 CNS = tested on: SNB-75 CNS
SF-268 CNS = tested on: SF-268 CNS
NCI-H23 lung = tested on: NCI-H23 lung
SK-OV-3 ovarian = tested on: SK-OV-3 ovarian
MOLT-4 leukemia = tested on: MOLT-4 leukemia
SN12C renal = tested on: SN12C renal
SW-620 colon = tested on: SW-620 colon
DU-145 prostate = tested on: DU-145 prostate
LOX IMVI melanoma = tested on: LOX IMVI melanoma
SR leukemia = tested on: SR leukemia
K-562 leukemia = tested on: K-562 leukemia
HOP-92 NSCLC = tested on: HOP-92 NSCLC
RXF 393 renal = tested on: RXF 393 renal
OVCAR-4 ovarian = tested on: OVCAR-4 ovarian
MDA-MB-435 = tested on: MDA-MB-435
EKVX NSCLC = tested on: EKVX NSCLC
MCF7 breast = tested on: MCF7 breast
UACC-257 melanoma = tested on: UACC-257 melanoma
NCI-H226 lung = tested on: NCI-H226 lung
HCC-2998 colon = tested on: HCC-2998 colon
SF-539 CNS = tested on: SF-539 CNS
SNB-19 CNS = tested on: SNB-19 CNS
TK-10 renal = tested on: TK-10 renal
PC-3 prostate = tested on: PC-3 prostate
CCRF-CEM leukemia = tested on: CCRF-CEM leukemia
OVCAR-3 ovarian = tested on: OVCAR-3 ovarian
HS 578T breast = tested on: HS 578T breast
786-0 renal = tested on: 786-0 renal
MDA-N = tested on: MDA-N
UO-31 renal = tested on: UO-31 renal
MALME-3M melanoma = tested on: MALME-3M melanoma
HT29 colon = tested on: HT29 colon
UACC-62 melanoma = tested on: UACC-62 melanoma
HCT-15 colon = tested on: HCT-15 colon
U251 CNS = tested on: U251 CNS
SK-MEL-5 melanoma = tested on: SK-MEL-5 melanoma
HOP-62 NSCLC = tested on: HOP-62 NSCLC
COLO 205 colon = tested on: COLO 205 colon
T-47D breast = tested on: T-47D breast
SK-MEL-28 melanoma = tested on: SK-MEL-28 melanoma
NCI-H522 lung = tested on: NCI-H522 lung
CAKI-1 renal = tested on: CAKI-1 renal
ACHN renal = tested on: ACHN renal
MDA-MB-231 breast = tested on: MDA-MB-231 breast
HCT-116 colon = tested on: HCT-116 colon
A498 renal = tested on: A498 renal
SF-295 CNS = tested on: SF-295 CNS
RPMI-8226 leukemia = tested on: RPMI-8226 leukemia
NCI-H460 lung = tested on: NCI-H460 lung

## CC1=NNC(=S)NCCCN2CCN(CCCNC(=S)NN=C(C)C=NNC(=S)NCCCN3CCN(CCCNC(=S)NN=C1)CC3)CC2
BT-549 breast
  TGI: > 100 µM
NCI/ADR-RES ovarian
  TGI: > 100 µM
A549 NSCLC
  TGI: > 100 µM
IGROV1 ovarian
  TGI: > 100 µM
HL-60(TB) leukemia
  TGI: > 100 µM
M14 melanoma
  TGI: > 100 µM
OVCAR-8 ovarian
  TGI: > 100 µM
SK-MEL-2 melanoma
  TGI: > 100 µM
KM12 colon
  TGI: > 100 µM
OVCAR-5 ovarian
  TGI: > 100 µM
SNB-75 CNS
  TGI: > 100 µM
SF-268 CNS
  TGI: > 100 µM
NCI-H23 lung
  TGI: > 100 µM
SK-OV-3 ovarian
  TGI: > 100 µM
MOLT-4 leukemia
  TGI: > 100 µM
SN12C renal
  TGI: > 100 µM
SW-620 colon
  TGI: > 100 µM
DU-145 prostate
  TGI: > 100 µM
LOX IMVI melanoma
  TGI: > 100 µM
SR leukemia
  TGI: > 100 µM
K-562 leukemia
  TGI: > 100 µM
HOP-92 NSCLC
  TGI: > 100 µM
RXF 393 renal
  TGI: > 100 µM
OVCAR-4 ovarian
  TGI: > 100 µM
MDA-MB-435
  TGI: > 100 µM
EKVX NSCLC
  TGI: > 100 µM
MCF7 breast
  TGI: > 100 µM
UACC-257 melanoma
  TGI: > 100 µM
NCI-H226 lung
  TGI: > 100 µM
HCC-2998 colon
  TGI: > 100 µM
SF-539 CNS
  TGI: > 100 µM
SNB-19 CNS
  TGI: > 100 µM
TK-10 renal
  TGI: > 100 µM
PC-3 prostate
  TGI: > 100 µM
CCRF-CEM leukemia
  TGI: > 100 µM
OVCAR-3 ovarian
  TGI: > 100 µM
HS 578T breast
  TGI: > 100 µM
786-0 renal
  TGI: > 100 µM
MDA-N
  TGI: > 100 µM
UO-31 renal
  TGI: > 100 µM
MALME-3M melanoma
  TGI: > 100 µM
HT29 colon
  TGI: > 100 µM
UACC-62 melanoma
  TGI: > 100 µM
HCT-15 colon
  TGI: > 100 µM
U251 CNS
  TGI: > 100 µM
SK-MEL-5 melanoma
  TGI: > 100 µM
HOP-62 NSCLC
  TGI: > 100 µM
COLO 205 colon
  TGI: > 100 µM
T-47D breast
  TGI: > 100 µM
SK-MEL-28 melanoma
  TGI: > 100 µM
NCI-H522 lung
  TGI: > 100 µM
CAKI-1 renal
  TGI: > 100 µM
ACHN renal
  TGI: > 100 µM
MDA-MB-231 breast
  TGI: > 100 µM
HCT-116 colon
  TGI: > 100 µM
A498 renal
  TGI: > 100 µM
SF-295 CNS
  TGI: > 100 µM
RPMI-8226 leukemia
  TGI: > 100 µM

## c1ccc(COC2C3COC(O3)C(OCc3ccccc3)C2OCc2ccccc2)cc1 (stereo not drawn)
BT-549 breast
  TGI: > 100 µM
NCI/ADR-RES ovarian
  TGI: > 100 µM
IGROV1 ovarian
  TGI: > 100 µM
HL-60(TB) leukemia
  TGI: 30.9 µM
M14 melanoma
  TGI: > 100 µM
OVCAR-8 ovarian
  TGI: > 100 µM
SK-MEL-2 melanoma
  TGI: > 100 µM
KM12 colon
  TGI: > 100 µM
NCI-H460 lung
  TGI: > 100 µM
OVCAR-5 ovarian
  TGI: > 100 µM
SNB-75 CNS
  TGI: > 100 µM
SF-268 CNS
  TGI: > 100 µM
NCI-H23 lung
  TGI: > 100 µM
SK-OV-3 ovarian
  TGI: > 100 µM
MOLT-4 leukemia
  TGI: 56.5 µM
SN12C renal
  TGI: 41.7 µM
SW-620 colon
  TGI: > 100 µM
DU-145 prostate
  TGI: > 100 µM
LOX IMVI melanoma
  TGI: > 100 µM
SR leukemia
  TGI: 25.4 µM
K-562 leukemia
  TGI: > 100 µM
HOP-92 NSCLC
  TGI: > 100 µM
RXF 393 renal
  TGI: > 100 µM
OVCAR-4 ovarian
  TGI: > 100 µM
MDA-MB-435
  TGI: > 100 µM
EKVX NSCLC
  TGI: > 100 µM
MCF7 breast
  TGI: > 100 µM
UACC-257 melanoma
  TGI: > 100 µM
NCI-H226 lung
  TGI: > 100 µM
HCC-2998 colon
  TGI: 52.1 µM
SF-539 CNS
  TGI: > 100 µM
SNB-19 CNS
  TGI: > 100 µM
TK-10 renal
  TGI: > 100 µM
PC-3 prostate
  TGI: > 100 µM
CCRF-CEM leukemia
  TGI: 40.6 µM
OVCAR-3 ovarian
  TGI: > 100 µM
HS 578T breast
  TGI: > 100 µM
786-0 renal
  TGI: > 100 µM
MDA-N
  TGI: > 100 µM
UO-31 renal
  TGI: > 100 µM
UACC-62 melanoma
  TGI: > 100 µM
HCT-15 colon
  TGI: > 100 µM
U251 CNS
  TGI: > 100 µM
SK-MEL-5 melanoma
  TGI: > 100 µM
HOP-62 NSCLC
  TGI: > 100 µM
COLO 205 colon
  TGI: > 100 µM
T-47D breast
  TGI: > 100 µM
NCI-H522 lung
  TGI: 62.6 µM
CAKI-1 renal
  TGI: > 100 µM
ACHN renal
  TGI: > 100 µM
MDA-MB-231 breast
  TGI: > 100 µM
HCT-116 colon
  TGI: > 100 µM
A498 renal
  TGI: > 100 µM
SF-295 CNS
  TGI: > 100 µM
RPMI-8226 leukemia
  TGI: > 100 µM
